# Assay results published in patent publication US20050009005A1, “Methods of using quantitative lipid metabolome data” (Lipomics Technologies, Inc., priority 2001, published 2005).
# System: de novo fatty acid synthesis
# Assay: Lipid metabolite profile of plasma, heart, liver and inguinal adipose of CL316,243-treated mice (trial 2; Tables 7 and 8)
# Format: in vivo
# Settings: for 14:0 / 16:0 / 16:1n7 / 18:0 / 18:1n7 / 18:1n9 / Saturates / Total / Total n7 / Total n9 / Total nMole of FA: mean
# Source text: It is understood that the described methods can be used to analyze lipid metabolites from other subjects, including particularly animals other than mice.
# Mouse tissue and plasma samples were a generous donation to Lipomics Technologies, Inc., from Dr. Edward Leiter of the Jackson Laboratory (Bar Harbor, Me.). Samples included the plasma, heart, liver and inguinal adipose of mice treated with pharmaceuticals or their corresponding controls.
# In trial 2, male, inbred NON mice were fed a control with or without the presence of the β-3 adrenergic agonist CL316,243 for four weeks (at 0.001% CL316,243 by weight in the dietary chow).
# In both studies, five treated and five control mice were used. Following the treatments and the killing of the mice, tissues and plasma were taken, chilled to −80 ° C. and shipped to the analysis laboratory at Lipomics Technologies in a frozen state.
# Tissue processing and lipid extraction, including provision of internal standards, was carried out essentially as described in Watkins et al. (J. Lipid Res. Papers in Press, 10.1184/jlf.M200169-JLF200, published August 16, 2002), and in co-owned international application PCT/US02/21426, entitled “GENERATING, VIEWING, INTERPRETING, AND UTILIZING A QUANTITATIVE DATABASE OF METABOLITES,” both of which are incorporated in their entirety herein by reference.
# The separation of lipid classes was performed in some instance by preparative thin-layer chromatography (TLC). To remove any residual metal or other damaging contaminants on the TLC plates, each plate was washed prior to use. Washing the plates is a three-step process that involves impregnating each plate with ethylenediamine tetraacetic acid (EDTA) and rinsing the plates once with methanol and once with chloroform. Each plate is first impregnated with 1 mM EDTA, pH 5.5, by ascending development using the method of Ruiz (J. Lipid Res. 38, 1482-1489, 1997). After each plate was completely developed, it was dried in air overnight. Once dry, each plate was developed in methanol, dried, and developed in chloroform in the same direction as the development with EDTA. The washed plates were then dried in air. Just prior to use, each plate was activated by heating to 110° C. for 10 minutes.
# To prepare the TLC chamber for chromatography, Whatman (Clifton, N.J.) filter paper was cut into 20×80-cm strips and wrapped around the inside wall of a 30×60×10-cm glass development chamber. One hundred milliliters of the appropriate mobile phase was added to the chamber, and the chambers were sealed and allowed to equilibrate. Chambers were considered equilibrated when the solvent front had completely ascended the filter paper. The mobile phase employed for the separation of phospholipid classes (lyso-phospholipids, sphingomyelin, phosphatidylcholine, phosphatidylserine, phosphatidylethanolamine and cardiolipin) was a modification of the solvent system described by Holub and Skeaf (“Nutritional regulation of cellular phosphatidylinositol,” in Methods in Enzymology, ed. Conn, P. M. (Academic Press, Inc., Orlando), pp. 234-243, 1987) consisting of chloroform/methanol/acetic acid/water (100:67:7:4, by volume).
# For the separation of neutral lipid classes (free fatty acids, free sterols, triacylglycerides and cholesterol esters), a solvent system consisting of petroleum ether/diethyl ether/acetic acid (80:20:1, by volume) was used (Mangold, Thin Layer Chromatography—A Laboratory Handbook (Springer-Verlag, New York), 1969).
# After the TLC plate was activated, the sample extracts were spotted onto the activated plate. As a general rule, samples were spotted at an estimated concentration such that no single lipid class was present at more than 25 jig per centimeter of plate width following chromatography. This ensured that the plate was not overloaded and minimized the risk of cross-contamination between lipid classes (cross-contamination is readily identified during sample analysis as each lipid class contains unique internal standards). […]
compound,measurement,setting,value
"C[C@H](Cc1ccc2c(c1)OC(C(=O)[O-])(C(=O)[O-])O2)NC[C@H](O)c1cccc(Cl)c1.[Na+].[Na+] [CL316,243]",14:0,"Adipose, CE",65.2 nanomoles per gram
same,16:0,"Adipose, CE",326.2 nanomoles per gram
same,16:1n7,"Adipose, CE",85.7 nanomoles per gram
same,18:0,"Adipose, CE",72.1 nanomoles per gram
same,18:1n7,"Adipose, CE",50.6 nanomoles per gram
same,18:1n9,"Adipose, CE",344.4 nanomoles per gram
same,14:0,"Adipose, FFA",833.3 nanomoles per gram
same,16:0,"Adipose, FFA",6822.9 nanomoles per gram
same,16:1n7,"Adipose, FFA",2652.0 nanomoles per gram
same,18:0,"Adipose, FFA",1467.5 nanomoles per gram
same,18:1n7,"Adipose, FFA",864.3 nanomoles per gram
same,18:1n9,"Adipose, FFA",9845.4 nanomoles per gram
same,14:0,"Adipose, PL",74.4 nanomoles per gram
same,16:0,"Adipose, PL",1403.3 nanomoles per gram
same,16:1n7,"Adipose, PL",291.2 nanomoles per gram
same,18:0,"Adipose, PL",1249.1 nanomoles per gram
same,18:1n7,"Adipose, PL",118.1 nanomoles per gram
same,18:1n9,"Adipose, PL",794.7 nanomoles per gram
same,14:0,"Adipose, TAG",79501.6 nanomoles per gram
same,16:0,"Adipose, TAG",666399.1 nanomoles per gram
same,16:1n7,"Adipose, TAG",265948.0 nanomoles per gram
same,18:0,"Adipose, TAG",73800.5 nanomoles per gram
same,18:1n7,"Adipose, TAG",49837.1 nanomoles per gram
same,18:1n9,"Adipose, TAG",793227.6 nanomoles per gram
same,14:0,"Adipose, lipid class CE",4.5 percentage of total fatty acids
same,16:0,"Adipose, lipid class CE",24.4 percentage of total fatty acids
same,16:1n7,"Adipose, lipid class CE",6.8 percentage of total fatty acids
same,18:0,"Adipose, lipid class CE",5.1 percentage of total fatty acids
same,18:1n7,"Adipose, lipid class CE",3.5 percentage of total fatty acids
same,18:1n9,"Adipose, lipid class CE",26.2 percentage of total fatty acids
same,Saturates,"Adipose, lipid class CE",35.7 percentage of total fatty acids
same,Total,"Adipose, lipid class CE",100.0 percentage of total fatty acids
same,Total n7,"Adipose, lipid class CE",10.3 percentage of total fatty acids
same,Total n9,"Adipose, lipid class CE",28.8 percentage of total fatty acids
same,14:0,"Adipose, lipid class FFA",2.6 percentage of total fatty acids
same,16:0,"Adipose, lipid class FFA",21.7 percentage of total fatty acids
same,16:1n7,"Adipose, lipid class FFA",9.2 percentage of total fatty acids
same,18:0,"Adipose, lipid class FFA",6.8 percentage of total fatty acids
same,18:1n7,"Adipose, lipid class FFA",2.8 percentage of total fatty acids
same,18:1n9,"Adipose, lipid class FFA",30.7 percentage of total fatty acids
same,Saturates,"Adipose, lipid class FFA",31.8 percentage of total fatty acids
same,Total,"Adipose, lipid class FFA",100.0 percentage of total fatty acids
same,Total n7,"Adipose, lipid class FFA",12.0 percentage of total fatty acids
same,Total n9,"Adipose, lipid class FFA",31.5 percentage of total fatty acids
same,14:0,"Adipose, lipid class PL",1.4 percentage of total fatty acids
same,16:0,"Adipose, lipid class PL",19.9 percentage of total fatty acids
same,16:1n7,"Adipose, lipid class PL",5.5 percentage of total fatty acids
same,18:0,"Adipose, lipid class PL",16.1 percentage of total fatty acids
same,18:1n7,"Adipose, lipid class PL",1.9 percentage of total fatty acids
same,18:1n9,"Adipose, lipid class PL",14.6 percentage of total fatty acids
same,Saturates,"Adipose, lipid class PL",39.0 percentage of total fatty acids
same,Total,"Adipose, lipid class PL",100.0 percentage of total fatty acids
same,Total n7,"Adipose, lipid class PL",7.4 percentage of total fatty acids
same,Total n9,"Adipose, lipid class PL",15.3 percentage of total fatty acids
same,14:0,"Adipose, lipid class TAG",3.3 percentage of total fatty acids
same,16:0,"Adipose, lipid class TAG",26.9 percentage of total fatty acids
same,16:1n7,"Adipose, lipid class TAG",10.8 percentage of total fatty acids
same,18:0,"Adipose, lipid class TAG",2.9 percentage of total fatty acids
same,18:1n7,"Adipose, lipid class TAG",2.0 percentage of total fatty acids
same,18:1n9,"Adipose, lipid class TAG",31.9 percentage of total fatty acids
same,Saturates,"Adipose, lipid class TAG",33.3 percentage of total fatty acids
same,Total,"Adipose, lipid class TAG",100.0 percentage of total fatty acids
same,Total n7,"Adipose, lipid class TAG",12.9 percentage of total fatty acids
same,Total n9,"Adipose, lipid class TAG",32.2 percentage of total fatty acids
same,lipid concentrations in plasma,"CL316,243 4 weeks vs controls",decreased
same,lipid synthesis in tissues,"CL316,243 4 weeks vs controls (Table 7)",decreased
same,vaccenic acid concentrations in these lipid classes,"CL316,243 4 weeks vs controls, heart, liver, adipose, plasma",typically decreased
same,14:0,"Heart, CE",59.3 nanomoles per gram
same,16:0,"Heart, CE",187.4 nanomoles per gram
same,16:1n7,"Heart, CE",36.2 nanomoles per gram
same,18:0,"Heart, CE",85.3 nanomoles per gram
same,18:1n7,"Heart, CE",19.6 nanomoles per gram
same,18:1n9,"Heart, CE",389.5 nanomoles per gram
same,Saturates,"Heart, CE",366.8 nanomoles per gram
same,Total n7,"Heart, CE",55.8 nanomoles per gram
same,Total n9,"Heart, CE",405.7 nanomoles per gram
same,Total nMole of FA,"Heart, CE",1226.9 nanomoles per gram
same,14:0,"Heart, CL",76.3 nanomoles per gram
same,16:0,"Heart, CL",231.1 nanomoles per gram
same,16:1n7,"Heart, CL",204.0 nanomoles per gram
same,18:0,"Heart, CL",397.1 nanomoles per gram
same,18:1n7,"Heart, CL",381.8 nanomoles per gram
same,18:1n9,"Heart, CL",956.2 nanomoles per gram
same,Saturates,"Heart, CL",776.3 nanomoles per gram
same,Total n7,"Heart, CL",585.8 nanomoles per gram
same,Total n9,"Heart, CL",1011.4 nanomoles per gram
same,Total nMole of FA,"Heart, CL",2975.1 nanomoles per gram
same,14:0,"Heart, FFA",181.4 nanomoles per gram
same,16:0,"Heart, FFA",1012.4 nanomoles per gram
same,16:1n7,"Heart, FFA",156.8 nanomoles per gram
same,18:0,"Heart, FFA",427.8 nanomoles per gram
same,18:1n7,"Heart, FFA",139.4 nanomoles per gram
same,18:1n9,"Heart, FFA",1964.0 nanomoles per gram
same,Saturates,"Heart, FFA",1683.2 nanomoles per gram
same,Total n7,"Heart, FFA",296.1 nanomoles per gram
same,Total n9,"Heart, FFA",2017.6 nanomoles per gram
same,Total nMole of FA,"Heart, FFA",6044.8 nanomoles per gram
same,14:0,"Heart, PC",94.6 nanomoles per gram
same,16:0,"Heart, PC",8127.9 nanomoles per gram
same,16:1n7,"Heart, PC",108.7 nanomoles per gram
same,18:0,"Heart, PC",5235.9 nanomoles per gram
same,18:1n7,"Heart, PC",568.2 nanomoles per gram
same,18:1n9,"Heart, PC",1990.2 nanomoles per gram
same,Saturates,"Heart, PC",13577.6 nanomoles per gram
same,Total n7,"Heart, PC",676.9 nanomoles per gram
same,Total n9,"Heart, PC",2052.1 nanomoles per gram
same,Total nMole of FA,"Heart, PC",15087.3 nanomoles per gram
same,14:0,"Heart, PE",27.5 nanomoles per gram
same,16:0,"Heart, PE",1814.0 nanomoles per gram
same,16:1n7,"Heart, PE",59.6 nanomoles per gram
same,18:0,"Heart, PE",5241.4 nanomoles per gram
same,18:1n7,"Heart, PE",250.5 nanomoles per gram
same,18:1n9,"Heart, PE",934.9 nanomoles per gram
same,14:0,"Heart, PL",170.5 nanomoles per gram
same,16:0,"Heart, PL",10799.7 nanomoles per gram
same,16:1n7,"Heart, PL",344.7 nanomoles per gram
same,18:0,"Heart, PL",13320.8 nanomoles per gram
same,18:1n7,"Heart, PL",1181.0 nanomoles per gram
same,18:1n9,"Heart, PL",4121.5 nanomoles per gram
same,14:0,"Heart, PS/I",33.4 nanomoles per gram
